Measurements from patent publication US20060153844A1, “Methods to trigger, maintain and manipulate immune responses by targeted administration of biological response modifiers into lymphoid organs” (priority 2004, published 2006).
“Also recorded” adds a separate entry of the source.

Columns and labels:
splenocyte = conditions: mouse, in vivo, sc
Protocol: C57BL/6 mice were treated with different doses of CpG and euthanized 8 days later for analysis of the spleen. […] The means±SEM (n=3) are shown. […] The means±SEM (n=3) are shown.

PLA2-specific IgG = PLA2-specific IgG by ELISA after PLA2 plus titrated CpG; assay type: in vivo, CBA/J mice
Protocol: The doses of CpG required to enhance Th1-dependent IgG immune responses against an allergen, and whether intralymphatic administration could reduce the required dose of CpG were evaluated. PLA2, the major allergen from bee venom, was used as a model allergen. CBA/J mice were immunized biweekly with […] ODN-1668pt together with 0.1 μg of PLA2 either intralymphatically (A) or subcutaneously (B). Three weeks after the third injection, sera of mice were collected and PLA2-specific IgG was determined by ELISA (FIG. 9). Values represent means and standard deviations obtained from three mice per group. One representative of two similar experiments is shown.

[1] = system: EL-4 target cells pulsed with the ovalbumin peptide epitope; experiment: direct ex vivo CTL activity, 51Cr-release assay after OVA plus CpG; assay type: in vivo, C57BL/6 mice; conditions: seven days later
Protocol: The optimal intralymphatic dose of CpG for CTL induction was evaluated and compared to the optimal subcutaneous dose. C57BL/6 mice were injected with OVA alone or in combination with CpG ODN 1668pt. CD8 T cell responses were tested for direct ex vivo CTL activity seven days later using ^51Cr-release assays on EL-4 target cells pulsed with the ovalbumin peptide epitope (SEQ. ID. No. 2) at various effector to target cell ratios. Two dilution series of effector cells per mouse were performed. The means±SEM (n=3) are shown (see FIG. 4). […] The CTL activity was correlated with the frequency of CD8 lymphocytes staining positive for intracellular IFN-γ as measured by flow cytometry (data not shown).

DCs = experiment: activation of lymph node DCs, up-regulation of CD80 and CD86 (flow cytometry); assay type: in vivo, C57BL/6 mice
Protocol: To assess CpG-induced activation of professional APCs, C57BL/6 mice received titrated amounts of CpG ODN 1668pt either subcutaneously by injection into the inguinal region or by direct injection into the inguinal lymph node. After one day the inguinal lymph nodes were collected and DCs were isolated by Collagenase D digestion and positive isolation using anti-CD11c magnetic beads. Activation of DCs was assessed by measuring up-regulation of CD80 and CD86 (FIGS. 3A and B). Values represent the mean fluorescence intensity (MFI) measured by flow cytometry. As control, mice were immunized i.ln. with saline solution. Lymph node cells pooled from three mice per group were used for the analysis. At least 1.5×10^4 CD11c^+ cells were acquired per condition. […] Note that an intralymphatic control injection with saline induced slight upregulation of CD80 and CD86. This may be explained by the physical lymph node damage produced by the needle. Thus, although both sites of injection are very close to each other, direct intralymphatic administration reduced the dose of CpG that is necessary for DC maturation by 10-50 fold.

[2] = system: PLA2-specific IgG2a and IgG1 antibodies; experiment: anti-PLA2 IgG2a, IgG1 and IgE in sera after intralymphatic PLA2 plus TLR ligand; assay type: in vivo, CBA/J mice; conditions: for kinetics of the antibody production (time of maximum titers): i.ln. with 0.1 μg PLA2, sera over 13 weeks; for anti-PLA2 antibody isotypes induced (IgG2a, IgG1): i.ln. with 0.1 μg PLA2, three injections; for sero-conversion: seven weeks after the first and three weeks after last injection, i.ln. with 0.1 μg PLA2
Protocol: The compounds were mixed within an hour before injection into the inguinal lymph node.
The sera were obtained over 13 weeks and analyzed by ELISA for anti-PLA2 IgG2a (FIG. 10A) and IgG1 (FIG. 10B). The ratio of IgG2a to IgG1 titers was calculated as a measure for Th1/Th2 immune response balance (FIG. 10C). […] Pre-immunization levels of anti-PLA2 antibodies were measured on sera from five mice taken the day before first injection.

[3] = system: CD4 or CD8 positive lymphocytes; experiment: intracellular IFN-γ in spleen CD4 and CD8 T cells by flow cytometry; assay type: in vivo, CBA/J mice; conditions: two weeks after further boost of PLA2 and adjuvant; percentage and absolute number
Protocol: Two weeks later spleen cells were isolated, and analysed directly for intracellular IFN-γ by flow cytometry (FIG. 11) or analyzed for IFN-γ, IL-4 and IL-10 secretion by ELISA after four days cultivation with 10 μg/ml PLA2 (FIG. 12). For FIG. 11, intracellular IFN-γ was measured by flow cytometry after four hours stimulation of cells with PdBu and ionomycin (both at 500 ng/ml) in the presence of brefeldin A (10 μg/ml). The cells were then incubated with anti-CD16/CD32 for Fc-recptor blocking and stained on ice and in PBS/FCS 2% with fluorescent-labelled Abs against CD4, CD8 and CD44 (all Abs from BD Biosciences (Franklin Lakes, N.J.). Cells were subsequently fixed with 4% paraformaldehyde and permeabilised with 0.1% Nonidet P-40 before staining with Ab against IFN-γ. Four-color cytometry were performed on a FACSCalibur flow cytometer (BD Biosciences, San Jose, Calif.). Cells were gated on CD4 or CD8 positive lymphocytes and the results expressed as means (±S.D.) for three mice, as percent of T-cell subset (A) or as absolute numbers in the spleen (B). One representative out of two immunization experiments is shown. […] Supernatants were collected after 96 hours incubation and IL-4, IL-10 and IFN-γ concentrations determined by ELISA from R&D Systems (Abingdon, United Kingdom). […]

splenocytes = experiment: IFN-γ, IL-4 and IL-10 secretion of splenocytes cultured with PLA2 (ELISA); assay type: in vivo, CBA/J mice; conditions: for IFN-γ secreted (ELISA): versus LPS or 3M003 P<0.01
Protocol: Two weeks later spleen cells were isolated, and analysed directly for intracellular IFN-γ by flow cytometry (FIG. 11) or analyzed for IFN-γ, IL-4 and IL-10 secretion by ELISA after four days cultivation with 10 μg/ml PLA2 (FIG. 12). For FIG. 11, intracellular IFN-γ was measured by flow cytometry after four hours stimulation of cells with PdBu and ionomycin (both at 500 ng/ml) in the presence of brefeldin A (10 μg/ml). The cells were then incubated with anti-CD16/CD32 for Fc-recptor blocking and stained on ice and in PBS/FCS 2% with fluorescent-labelled Abs against CD4, CD8 and CD44 (all Abs from BD Biosciences (Franklin Lakes, N.J.). Cells were subsequently fixed with 4% paraformaldehyde and permeabilised with 0.1% Nonidet P-40 before staining with Ab against IFN-γ. Four-color cytometry were performed on a FACSCalibur flow cytometer (BD Biosciences, San Jose, Calif.). Cells were gated on CD4 or CD8 positive lymphocytes and the results expressed as means (±S.D.) for three mice, as percent of T-cell subset (A) or as absolute numbers in the spleen (B). One representative out of two immunization experiments is shown. For FIG. 12, after homogenisation of spleens and lysis of red blood cells, 5×10^5 splenocytes were cultured with […] PLA2 protein in 200 μl IMDM (Gibco) supplemented with L-glutamine (4 mM), FCS (10%), mercaptoethanol (75 μM), as well as streptomycin and ampicillin. Supernatants were collected after 96 hours incubation and IL-4, IL-10 and IFN-γ concentrations determined by ELISA from R&D Systems (Abingdon, United Kingdom). Cytokine concentrations in supernatants as determined by ELISA after subtraction of spontaneous cytokine secretion was determined upon in vitro stimulation with an irrelevant antigen (ovalbumin). Statistical differences between the different groups were indicated when significant (P<0.01). One representative out of two immunization experiments is shown.

[4] = of the 17 patients receiving IL-12 in the phase II study; cited from earlier work
CD8+ T cell population = experiment: tetramer and CD8 double staining after intranodal Melan-A peptide plus BRM; assay type: in vivo; conditions: for immune response by tetramer staining: intranodal Melan-A peptide alone, plus 0.1 nmole CpG ODN or plus 25 μg polyI:C, days 0, 3, 14 and 17
From the text: H-2 class I-negative, HLA-A2.1-transgenic (HHD-1) mice (Pascolo, S., et al., J Exp Med. 185:2043-2051, 1997 (which is incorporated herein in its entirety)) were housed under pathogen-free conditions and used for evaluation of the immunogenicity of HLA-A2.1-restricted human tumor-associated cytotoxic T lymphocyte (CTL) epitopes. Female mice 8-12 weeks of age were used for intralymphatic immunization and for isolation of splenocytes for in vivo cytotoxicity studies. […] A total of four rounds of injections were given, on days 0, 3, 14 and 17.
The immune response was measured by tetramer and CD8 double staining of splenocytes from the immunized mice. Mononuclear cells isolated from peripheral blood after density centrifugation (Lympholyte Mammal, Cedarlane Labs) with HLA-A*0201 MART1 (SEQ. ID. No. 3)-PE MHC tetramer (Beckman Coulter) and FITC conjugated rat anti-mouse CD8a (Ly-2) monoclonal antibody (BD Biosciences). Data was collected using a BD FACS Calibur flow cytometer and analysed using Cellquest software by gating on the lymphocyte population and calculating the percent of tetramer^+ cells within the CD8^+ CTL population. The results (see FIG. 5) were expressed as means±SEM of % tetramer stained cells within the CD8+ T cell population (A), and with specific dot plot plots representative for each group (B). Splenocytes from naive transgenic mice were included as controls.

[5] = system: ^51Cr-labeled target cells (T2 cells); experiment: standard cytotoxic assay after intranodal peptide plus polyI:C; assay type: in vivo, HHD-A2 transgenic mice; conditions: 12.5 μg peptide+12.5 μg polyI:C per inguinal lymph node, day 0, 3, 14 and 17; targets pulsed with peptide or tumor cells
Protocol: HHD-A2 transgenic mice (n=4/group) were immunized with various peptides (see Table 1) admixed with polyI:C, by direct inoculation into the inguinal lymph nodes (12.5 μg peptide+12.5 μg of adjuvant, in 25 μl of PBS/each inguinal lymph node at day 0, 3, 14 and 17). One week after the final administration, splenocytes were stimulated ex vivo with 10 μg/ml of peptide in presence of 5 U/ml of rIL-2 and tested in a standard cytotoxic assay, against ^51Cr-labeled target cells (T2 cells) uncoated or coated with cognate peptide, at various Effector:Target ratios. Alternatively, in the case of PSMA 288-297 epitope, cytotoxicity was measured against PSMA expressing human tumor cells (LNCap) cells coated or not with 10 μg/ml of MHC class I blocking antibody (W6/32). Cytotoxicity resulting from immunization with the NY-ESO-1 157-165 epitope was also assessed against 624.28 and 624.38 cells that had been transformed to express a GFP/NY-ESO-1 fusion protein.

[6] = system: Human melanoma tumor target cells, 624.38 (Melan-A^+, HLA-A2^+); experiment: in vivo clearance of human melanoma tumor cells from pulmonary tissue; set-up: species or system HHD-1 mice; conditions: mice immunized intranodally as in Example 4, challenged i.v. with 624.38 cells
Protocol: The effectiveness of CTL generated as described in Example 4 was assessed as in vivo clearance of tumor cells from pulmonary tissue in mice challenged with Melan-A^+ tumor cells. Human melanoma tumor target cells, 624.38 (Melan-A^+, HLA-A2^+) were cultured in RPMI medium supplemented with 10% fetal bovine serum (Hyclone), 0.1 mM non-essential amino acids, and 0.3 mg/mL L-glutamine in a 5% CO2 incubator at 37° C. The HLA-A2^− subclone, 624.28, was grown under the same conditions and served as a negative control. Specific targets were prepared by incubating 10^8 624.38 cells with 2.5 μM CFSE in PBS for 20 minutes (CFSE^hi) and 10^8 HLA-A2^−, 624.28 target controls were labelled with 0.25 μM CFSE (CFSE^lo). Each immunized HHD-1 mouse was intravenously injected in the tail vein with a mixture of 10^7 CFSE^hi 624.38 and 10^7 CFSE^lo 624.28 cells followed by an identical injection 3 hours later. Un-immunized HHD-1 mice were also injected and served as naïve controls. […] The mononuclear cells were then isolated by density centrifugation and CFSE positive cells were analysed by FACS. The in vivo specific lysis of human melanoma target cells in the lung was calculated by the following formula: [(1−% CFSE^hi/% CFSE^lo)−(1−% CFSE^hiControl/% CFSE^loControl)]

CpG ODN 1668pt: CpG ODN 1668pt (SEQ. ID. No. 1), unmethylated CpG oligodeoxynucleotide, TLR9 ligand (DNA TCCATGACGTTCCTGAATAAT; DNA, backbone not given here)
changes of B lymphocytes in spleen (splenocyte): Only moderate changes
relative amounts of CD4 and CD8 T cells as well as NK cells (splenocyte): substantially reduced in a dose-dependent manner
PLA2-specific antibody responses (PLA2-specific IgG; intralymphatic, high CpG dose of 10 nmol): no antibody responses were detectable
PLA2-specific antibody titers (PLA2-specific IgG; intralymphatic, low CpG doses of 0.1 and 0.01 nmol): highest antibody titers
PLA2-specific IgG, adjuvant effect (PLA2-specific IgG; subcutaneously, CpG 0.1 and 0.01 nmol): an adjuvant effect was no longer detectable
PLA2-specific IgG titers (PLA2-specific IgG; subcutaneously, CpG doses of 10 and 1 nmol with 0.1 μg PLA2): highest IgG titers
CTL activity ([1]; subcutaneous vaccination with OVA plus CpG): did not elicit CTL activity
CTL activity ([1]; vaccinated intralymphatically with OVA plus CpG): significant induction of cytotoxic CD8 T cells even at 0.01 nmol CpG
expression of CD80 and CD86 on DCs (DCs; 10 and 1 nmol, regardless of the route, after one day): significantly enhanced expression of CD80 and CD86
reduction of the dose of CpG necessary for DC maturation (DCs; direct intralymphatic versus subcutaneous administration): 10-50 fold
DC maturation (DCs; low CpG doses of 0.1 and 0.01 nmol, i.ln. versus s.c.): only direct injection into the inguinal lymph node induced significant DC maturation

CpG: phosphorothioate-modified CpG ODN 1826 (SEQ. ID. No. 10), TLR 9 ligand, Examples 8 and 9 (DNA TCCATGACGTTCCCTGACGTT; DNA, all phosphorothioate, methylation of C not given here)
serum concentration of IgG1 relative to the titers induced by LPS or PolyI:C ([2]; geometrically, 10 and 13 weeks): 30-50%
kinetics of the antibody production (time of maximum titers) [2]: a delay in the IgG1 antibody production
anti-PLA2 antibody isotypes induced (IgG2a, IgG1) [2]: induced IgG2a
IgG1 in seven-week sera ([2]; seven weeks after initiating immunization): hardly detectable
sero-conversion [2]: notable sero-conversion
IFN-γ producing CD8-positive and CD4-positive T cells [3]: strongest effect
IL-4 secretion (splenocytes; compared with 3M003 and PolyI:C (P<0.01) or LPS (P<0.05)): significantly reduced IL-4 secretion
IL-10 production (splenocytes; splenocytes cultured with PLA2): the strongest IL-10 production
IFN-γ secreted (ELISA) (splenocytes; splenocytes cultured with PLA2): highest amounts of IFN-γ

IL-12: co-stimulatory cytokine
patients died [4]: 2 patients
patients hospitalized [4]: 12 patients

Melan-A peptide: Melan-A peptide (SEQ. ID. No. 3), A27L analogue of the A2-restricted Melan-A 26-35 epitope
immune response by tetramer staining (CD8+ T cell population): readily detectable response by tetramer staining; also recorded: not very effective in inducing a robust T cell population expansion

peptidoglycan
kinetics of the antibody production (time of maximum titers) [2]: peak titers were delayed
anti-PLA2 antibody isotypes induced (IgG2a, IgG1) [2]: induced predominantly IgG2a

polyriboinosinic polyribocytidylic acid [polyI:C]
kinetics of the antibody production (time of maximum titers) [2]: maximum levels of antibodies within three weeks of the final boost injection
anti-PLA2 antibody isotypes induced (IgG2a, IgG1) [2]: high antibodies titers of both IgG1 and IgG2a isotypes
sero-conversion [2]: notable sero-conversion
cytotoxic response [5]: triggered a specific cytotoxic response
immune response by tetramer staining (CD8+ T cell population): robust antigen specific response
systemic acute phase reaction, mortality or morbidity at the dose used (CD8+ T cell population; intranodal, 0.1 nmole CpG ODN or 25 μg polyI:C): not associated with observed mortality or morbidity
in vivo lysis of human melanoma target cells in the lung [6]: substantial lytic activity
IFN-γ secreted (ELISA) (splenocytes; splenocytes cultured with PLA2): highest amounts of IFN-γ
